The values that follow come from patent US9464080B2, “Substituted pyrido[2,3-d]pyrimidines for dry skin and anti-ageing application” (L'OREAL, priority 2012, dated 2016).

Assay type in all cases: cell-based
Assay [1] concerns Episkin™ reconstructed epidermis. Kind of assay: HES morphological observation of treated Episkin reconstructed epidermis. The note with it: systemic treatment over 5 days. As to the method:
(§1) The reconstructed epidermises, received from the Episkin company at six days of reconstruction, were placed back into culture, when received, in 3.5 ml of differentiation medium (Episkin™ medium) under insert (in emersion) in an incubator for 48 hours (37° C., 5% CO2).
(§2) The epidermises were subsequently contacted with the test compounds systemically. The Episkin™ differentiation culture medium is replaced by a differentiation medium containing the test compounds with 0.1% of final DMSO vehicle. The epidermises were placed back into culture in the incubator for 48 hours. A new systemic treatment is carried out for a further 72 hours in culture in the incubator.
(§3) For the treatment on Episkin™, each test compound was prepared at the time of use by being weighed out and dissolved at 10 mM in DMSO, then used to treat 3 samples of reconstructed epidermis. […] The positive controls used were vitamin D3, retinol and calcipotriol (a vitamin D3 analogue).
(§4) The epidermises were withdrawn (3 epidermises per treatment) for histological analysis and protein extracts (a single reconstructed epidermis is used for the histological study and the protein extract).
Morphological control of the reconstructed epidermises treated was carried out using HES (Hematoxylin—Eosin—Saffron) staining in accordance with a standard protocol on the histological sections of the samples enclosed in paraffin (toluene bath: thrice 15 minutes; 100° alcohol baths; twice one minute; 95° alcohol baths: one minute; rinsing in water baths; hematoxylin bath: once 2 minutes; rinsing in water baths; brief immersion in a hydrochloric acid bath; rinsing with water; eosin bath: once one minute; rinsing with water; brief immersion in a 100° alcohol bath; saffron bath (5 minutes); brief immersion in a 100° alcohol bath; toluene bath: thrice 2 minutes).

The subject of the next assay is CD44. Kind of assay: CD44 immunolabelling of treated Episkin reconstructed epidermis. As to conditions: for CD44: Episkin, systemic treatment over 5 days, effect generally rated for the highest concentration used (10 μM). The procedure: as §1, §2
For the treatment on Episkin™, each test compound was prepared at the time of use by being weighed out and dissolved at 10 mM in DMSO, then used to treat 3 samples of reconstructed epidermis. Furthermore, each compound under test was employed at a final 1 and […] in the culture medium (0.1% final DMSO). The positive controls used were vitamin D3, retinol and calcipotriol (a vitamin D3 analogue).
as §4
The samples of epidermis were enclosed in OCT for freezing in liquid nitrogen and then stored at −80° C. The resulting blocks were cut to a thickness of 7 μm using a cryostat, and the slices were dried and stored at −20° C. while awaiting immunolabelling.
The labels selected for the immunolabelling are as follows: • Ki67 to provide information on any change in cell proliferation in the basal layer, and • CD44 to provide information on any change in the metabolism of the living layers and in the proliferation/differentiation balance.

A further assay concerns Ki67. Kind of assay: Ki67 immunolabelling of treated Episkin reconstructed epidermis. As to the method: as §1, §2, §3, §4
The samples of epidermis were enclosed in OCT for freezing in liquid nitrogen and then stored at −80° C. […]

Where [2] appears, read: effect generally rated for the highest concentration used (10 μM).

In assay [1] (setting [2]), `CCOC(=O)C1=C(C)Nc2c(c(=O)n(C)c(=O)n2C)C1c1cccc(Oc2ccccc2)c1` (stereo not drawn) [Compound (2)] yielded an HES of 0. This compound gave a CD44 in the assay on CD44 of 0.

The compound `CCOC(=O)C1=C(C)Nc2c(c(=O)n(C)c(=O)n2C)C1CC(C)C` (stereo not drawn) [Compound (4)] displayed an HES in assay [1] (setting [2]) of 0. Moreover, in the assay on Ki67 (Episkin samples treated, FIG. 2), the Ki67 labelling result is recorded as “strong increase in Ki67 labelling”. The CD44 immunolabelling result with CD44 (Episkin samples treated, FIG. 3) is “increase in CD44”. In the assay with CD44, the CD44 entry was “++ (*)”.

With `CC1=C(/C=C/C(C)=C/C=C/C(C)=C/CO)C(C)(C)CCC1` [Retinol, retinol, reference compound], in assay [1] (100 μM), the HES is 0. For the same compound, the Ki67 with Ki67 (Episkin, systemic treatment over 5 days, 100 μM) was determined as 0.

As for `C=C1CC[C@H](O)C/C1=C/C=C1\CCC[C@]2(C)[C@@H]([C@H](C)CCCC(C)C)CC[C@@H]12` [Vitamin D3, vitamin D3, reference compound], in assay [1] (setting [2]), the HES is given as 0.
